From PubChem BioAssay (NCI)
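Each compound was tested at five concentrations against cells in 96-well plates for 48 hours. The concentration for 50% growth inhibition is given as GI50. TGI: total growth inhibition.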 Where a SMILES comes first, the peptide text is derived from it.

Tests used:
Assay in all cases: NCI anticancer screen, dose series, 48 h
SK-MEL-2 melanoma = tested on: SK-MEL-2 melanoma
CAKI-1 renal = tested on: CAKI-1 renal
A549 NSCLC = tested on: A549 NSCLC
HOP-92 NSCLC = tested on: HOP-92 NSCLC
RXF 393 renal = tested on: RXF 393 renal
SN12C renal = tested on: SN12C renal
K-562 leukemia = tested on: K-562 leukemia
OVCAR-5 ovarian = tested on: OVCAR-5 ovarian
HT29 colon = tested on: HT29 colon
RPMI-8226 leukemia = tested on: RPMI-8226 leukemia

| Compound | GI50 (SK-MEL-2 melanoma) | TGI (SK-MEL-2 melanoma) | GI50 (CAKI-1 renal) | TGI (CAKI-1 renal) | GI50 (A549 NSCLC) | TGI (A549 NSCLC) | GI50 (HOP-92 NSCLC) | TGI (HOP-92 NSCLC) | GI50 (RXF 393 renal) | TGI (RXF 393 renal) | TGI (SN12C renal) | TGI (K-562 leukemia) | TGI (OVCAR-5 ovarian) | TGI (HT29 colon) | TGI (RPMI-8226 leukemia) | GI50 (SN12C renal) | GI50 (K-562 leukemia) | GI50 (OVCAR-5 ovarian) | GI50 (HT29 colon) | GI50 (RPMI-8226 leukemia) |
| --- | --- | --- | --- | --- | --- | --- | --- | --- | --- | --- | --- | --- | --- | --- | --- | --- | --- | --- | --- | --- |
| COC1=CC(c2ccc[nH]2)=N/C1=C\c1[nH]c(C)c(CC(=O)NCc2ccccc2)c1C | 1.71 µM | 3.29 µM | 1.48 µM | 2.85 µM | 1.66 µM | 3.15 µM | 1.4 µM | 2.94 µM | 1.55 µM | 2.95 µM | – | – | – | – | – | – | – | – | – | – |
| O=C([O-])c1ccccc1Nc1ccccc1C(=O)[O-].[OH3+].[Zn+2] | – | 40.4 µM | – | 8.45 µM | – | > 100 µM | – | 45.7 µM | – | 42.7 µM | > 100 µM | 88.7 µM | > 100 µM | > 100 µM | > 100 µM | – | – | – | – | – |
| O=C(N/N=C\c1ccc(N(CCCl)CCCl)cc1)c1cccnc1 | > 100 µM | > 100 µM | 8.53 µM | > 100 µM | 37.5 µM | > 100 µM | 30.6 µM | > 100 µM | 19.7 µM | 85.7 µM | > 100 µM | > 100 µM | > 100 µM | > 100 µM | > 100 µM | 20.6 µM | 32.2 µM | > 100 µM | > 100 µM | 44.8 µM |
| COc1cc2c(c(OC)c1OC)-c1ccc(OC)c(=O)cc1C(NC(=O)CCCCCNc1ccc(N=[N+]=[N-])cc1[N+](=O)[O-])CC2 (stereo not given) | – | < 0.01 µM | – | 18.4 µM | – | 5.8 µM | – | – | – | 6.67 µM | 11.5 µM | – | 31.4 µM | < 0.01 µM | < 0.01 µM | – | – | – | – | – |
| COc1c(O)cc2c(c1O)C(=O)C(Cc1ccc(O)cc1)CO2 (stereo not given) | – | > 100 µM | – | > 100 µM | – | > 100 µM | – | > 100 µM | – | > 100 µM | > 100 µM | > 100 µM | > 100 µM | > 100 µM | > 100 µM | – | – | – | – | – |
| CC1=C/C(=N\NS(=O)(=O)c2ccc([N+](=O)[O-])cc2)CC(C)(C)C1 | – | > 100 µM | – | > 100 µM | – | > 100 µM | – | 75.6 µM | – | > 100 µM | > 100 µM | > 100 µM | > 100 µM | – | > 100 µM | – | – | – | – | – |
| N=C1c2ccccc2C(=O)c2c(NCCNCCO)ccc(O)c21 | – | 33.5 µM | – | 26.5 µM | – | 22.6 µM | – | > 71.2 µM | – | 18 µM | 31.7 µM | > 28.8 µM | 84.7 µM | > 100 µM | 24.6 µM | – | – | – | – | – |
| CC(=O)NC(CS)C(=O)NC(CO)C(=O)NC(CO)C(=O)NC(Cc1c[nH]c2ccccc12)C(=O)N1CCCC1C(=O)NC(CO)C(=O)NC(Cc1c[nH]c2ccccc12)C(=O)NC(Cc1c[nH]cn1)C(=O)NC(CO)C(=O)NC(Cc1c[nH]c2ccccc12)C(=O)NCC(=O)NCC(=O)NC(C)C(=O)NC(CCC(N)=O)C(=O)NC(CCCCN)C(=O)NC(C)C(=O)NC(CCCNC(=N)N)C(=O)NC(CCCCN)C(N)=O (stereo not given) (Ac-CSSWPSWHSWGGAQKARK-NH2; configuration not given here) | – | > 50 µM | – | 33.6 µM | – | > 50 µM | – | > 50 µM | – | 24.9 µM | > 50 µM | 28.5 µM | > 50 µM | > 50 µM | > 50 µM | – | – | – | – | – |
| N#CC1(C#N)C(=O)c2ccncc2C1=O | – | > 100 µM | – | > 100 µM | – | > 100 µM | – | > 100 µM | – | > 100 µM | > 100 µM | > 100 µM | > 100 µM | > 100 µM | > 100 µM | – | – | – | – | – |
| O=S(=O)(O)c1ccc(N=Nc2ccc(N=Nc3c(O)ccc4ccc(S(=O)(=O)O)cc34)cc2)cc1 | – | > 100 µM | – | > 100 µM | – | > 100 µM | – | > 100 µM | – | > 100 µM | > 100 µM | > 100 µM | > 100 µM | > 100 µM | > 100 µM | – | – | – | – | – |
| CN(CCO)CCC1COc2ccccc2O1 (stereo not given) | – | > 10 µM | – | > 10 µM | – | > 10 µM | – | – | – | > 10 µM | > 10 µM | > 10 µM | > 10 µM | > 10 µM | > 10 µM | – | – | – | – | – |
| Brc1ccc2nc(-c3cccs3)nc(N3CCN(c4ccccc4)CC3)c2c1 | – | > 100 µM | – | > 100 µM | – | > 100 µM | – | > 100 µM | – | – | > 100 µM | > 100 µM | > 100 µM | > 100 µM | > 100 µM | – | – | – | – | – |
| CC(C)(C)c1ccc(NS(=O)(=O)c2ccc(N)cc2)cc1 | – | 36.5 µM | – | 99.4 µM | – | > 100 µM | – | – | – | 94.1 µM | 48.6 µM | 41.7 µM | 84.3 µM | 35.3 µM | 30.6 µM | – | – | – | – | – |
| COc1cc(-c2n/c(=C\c3c(O)[nH]c4ccccc34)cc3c2=Nc2ccccc2-3)ccc1F | 21.7 µM | 62.2 µM | 38.5 µM | > 100 µM | 7.06 µM | 23.5 µM | 3.29 µM | 19.9 µM | 3.61 µM | 22.2 µM | 34 µM | 62.1 µM | 90.8 µM | 16.1 µM | > 100 µM | 10.7 µM | 5.88 µM | 22.2 µM | 4.02 µM | 17.5 µM |
| C/C=C(\C)C(=O)OC1C2C(C)=CC(=O)C(O)C2(C)C2C3(O)OCC24C1OC(=O)C(OC(C)=O)C4C(C)C3O (stereo not given) | – | 0.073 µM | – | 0.674 µM | – | 0.648 µM | – | 0.0508 µM | – | 0.063 µM | 0.468 µM | 0.375 µM | 1.53 µM | 0.382 µM | 0.0377 µM | – | – | – | – | – |
| CCOC(=O)NC(=O)c1cn(CCN(CCO)C(=O)NCCCCCCNC(=O)N(CCO)CCn2cc(C(=O)NC(=O)OCC)c(=O)[nH]c2=O)c(=O)[nH]c1=O | – | > 100 µM | – | > 100 µM | – | > 100 µM | – | > 100 µM | – | > 100 µM | > 100 µM | > 100 µM | > 100 µM | > 100 µM | > 100 µM | – | – | – | – | – |
| CCCC[n+]1ccn(-c2nc3ccccc3n2C)c1 | – | > 100 µM | – | > 100 µM | – | > 100 µM | – | – | – | > 100 µM | > 100 µM | > 100 µM | > 100 µM | > 100 µM | > 100 µM | – | – | – | – | – |
| COc1nc2ccc(Cl)c(C(O)c3ccccc3)c2nc1OC (stereo not given) | – | 45 µM | – | 45.3 µM | – | 78.6 µM | – | 60.6 µM | – | 41.3 µM | 40.3 µM | > 100 µM | > 100 µM | > 100 µM | 34.1 µM | – | – | – | – | – |
| COC(Cc1cc(C(O)(c2ccc(C(C)(C)C)cc2)c2cc(CC(OC)(c3cc(C(OC)(c4ccc(C(C)(C)C)cc4)c4ccc(C(C)(C)C)cc4)c(C)cc3C)c3cc(C(OC)(c4ccc(C(C)(C)C)cc4)c4ccc(C(C)(C)C)cc4)c(C)cc3C)c(C)cc2C)c(C)cc1C)(c1cc(C(OC)(c2ccc(C(C)(C)C)cc2)c2ccc(C(C)(C)C)cc2)c(C)cc1C)c1cc(C(OC)(c2ccc(C(C)(C)C)cc2)c2ccc(C(C)(C)C)cc2)c(C)cc1C | – | > 75 µM | – | > 75 µM | – | > 75 µM | – | > 75 µM | – | > 75 µM | > 75 µM | > 75 µM | > 75 µM | > 75 µM | – | – | – | – | – | – |
| N/C(=C\c1ccc(/C=C(\NC(=O)c2ccccc2)c2nc3c([nH]2)C(=O)c2ccccc2C3=O)cc1)c1nc2c([nH]1)C(=O)c1ccccc1C2=O | – | – | – | 60.7 µM | – | 36.5 µM | – | 22.2 µM | – | 26.2 µM | 32.8 µM | 43.5 µM | 40.5 µM | 32.4 µM | 26.1 µM | – | – | – | – | – |
| N#C[S-].[Ce+3].c1ccc(-c2ccccn2)nc1.c1ccc(-c2ccccn2)nc1.c1ccc(-c2ccccn2)nc1 | 25.4 µM | 63.1 µM | 10.8 µM | 91.3 µM | 24.8 µM | > 100 µM | – | – | 22.7 µM | 98.4 µM | > 100 µM | – | 42.9 µM | > 100 µM | – | 12.8 µM | – | 6.15 µM | 10.6 µM | – |
